Results: ChEMBL document CHEMBL4616701, “Design, Synthesis, and Pharmacological Evaluation of Second Generation EZH2 Inhibitors with Long Residence Time” (ACS Med Chem Lett, 2020)
The source made the active and inactive calls. The calls are words filed in the database; no cut-off is given here.

Tests used:
[1] = target: T1, Histone-lysine N-methyltransferase EZH2 (Homo sapiens, UniProt Q15910); experiment: Inhibition of N-terminal FLAG-tagged EZH2 in PRC2 complex (unknown origin) expressed in baculovirus infected Sf9 cells using H2N-RKQLATKAAR(Kme0)SAPATGGVKKP-NTPEGBiot peptide as substrate preincubated with [3H]SAM for 4 to 5 hrs followed by substrate addition and measured after 20 hrs by Topcount reader analysis
Target sequence in this assay (Q15910 whole entry): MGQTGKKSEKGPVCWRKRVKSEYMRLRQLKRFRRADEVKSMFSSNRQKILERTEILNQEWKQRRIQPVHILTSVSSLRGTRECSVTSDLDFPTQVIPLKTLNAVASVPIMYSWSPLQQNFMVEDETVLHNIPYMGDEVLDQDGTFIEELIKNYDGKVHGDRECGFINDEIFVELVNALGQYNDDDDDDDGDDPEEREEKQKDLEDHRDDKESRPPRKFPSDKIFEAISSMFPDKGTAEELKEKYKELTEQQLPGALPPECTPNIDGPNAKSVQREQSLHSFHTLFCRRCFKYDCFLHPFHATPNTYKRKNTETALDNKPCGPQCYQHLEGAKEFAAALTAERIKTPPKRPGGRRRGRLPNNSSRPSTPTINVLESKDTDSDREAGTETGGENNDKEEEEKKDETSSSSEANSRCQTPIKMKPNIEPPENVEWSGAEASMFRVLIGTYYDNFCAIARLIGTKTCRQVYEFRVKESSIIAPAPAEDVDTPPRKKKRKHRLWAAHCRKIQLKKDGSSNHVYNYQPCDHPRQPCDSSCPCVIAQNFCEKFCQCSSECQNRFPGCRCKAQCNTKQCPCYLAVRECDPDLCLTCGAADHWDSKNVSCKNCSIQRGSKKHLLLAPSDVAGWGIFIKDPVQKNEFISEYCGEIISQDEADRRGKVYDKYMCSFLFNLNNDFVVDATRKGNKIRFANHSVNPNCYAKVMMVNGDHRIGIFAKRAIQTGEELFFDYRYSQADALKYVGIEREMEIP

[2] = target: T1, Histone-lysine N-methyltransferase EZH2; experiment: Inhibition of EZH2 in human HeLa cells assessed as inhibition of trimethylation of H3K27 after 72 hrs by AlphaLISA assay; type: cell-based
Target sequence in this assay (Q15910 whole entry): as above

KARPAS-422 [3] = experiment: Antiproliferative activity against human KARPAS422 cells assessed as growth inhibition after 8 days by Cell Titer-Glo luminescent assay; type: functional; conditions: KARPAS-422, 192 h
CYP3A4 = experiment: Upregulation of CYP3A4 mRNA expression in human Fa2N-4 cells at 10 uM after 3 days relative to control; type: ADME, cell-based; conditions: read-out: FC
[4] = target: T1, Histone-lysine N-methyltransferase EZH2; experiment: Binding affinity to N-terminal FLAG-tagged EZH2 in PRC2 complex (unknown origin) expressed in baculovirus infected Sf9 cells assessed as residence time at 21 nM pre-equilibrated with enzyme followed by incubation with bio-EZH2i and measured after 3 to 6 mins by TR-FRET assay
Target sequence in this assay (Q15910 whole entry, looked up): as the sequence (Q15910 whole entry) above

[5] = Toxicity in CB-17 SCID mouse xenografted with human KARPAS422 cells assessed as body weight loss at 50 mg/kg, sc bid for 16 days; type: organism-based, KARPAS-422; conditions: in vivo, 384 h
[6] = Clearance in iv dosed mouse; type: ADME, organism-based; conditions: in vivo
[7] = Oral bioavailability in mouse; type: ADME, organism-based; conditions: in vivo
[8] = Protein binding in mouse plasma; type: ADME, cell-free; conditions: read-out: PPB (converted)
[9] = Protein binding in human plasma; type: ADME, cell-free; conditions: read-out: PPB (converted)
KARPAS-422 [10] = experiment: Antitumor activity against human KARPAS422 cells xenografted in CB-17 SCID mouse assessed as tumor growth inhibition at 50 mg/kg, sc bid for 16 days and measured three times per week by caliper method relative to control; type: functional; conditions: KARPAS-422, sc, 384 h, read-out: TGI
KARPAS-422 [11] = experiment: Antitumor activity against human KARPAS422 cells xenografted in CB-17 SCID mouse assessed as tumor regression at 50 mg/kg, sc bid for 16 days and measured at day 7 by caliper method; type: functional, organism-based
KARPAS-422 [12] = experiment: Antitumor activity against human KARPAS422 cells xenografted in CB-17 SCID mouse assessed as tumor regression at 160 mg/kg, po bid for 23 days and measured three times per week by caliper method; type: functional, organism-based
CWR22R = experiment: Antitumor activity against human 22Rv1 cells xenografted in CB-17 SCID mouse assessed as tumor growth inhibition at 50 mg/kg, sc bid and measured three times per week by caliper method relative to control; type: functional; conditions: 22Rv1, sc, read-out: TGI
KARPAS-422 [13] = experiment: Antitumor activity against human KARPAS422 cells xenografted in CB-17 SCID mouse assessed as tumor regression at 50 mg/kg, sc bid for 16 days and measured at day 9 by caliper method; type: functional, organism-based
KARPAS-422 [14] = experiment: Antitumor activity against human KARPAS422 cells xenografted in CB-17 SCID mouse assessed as tumor regression at 25 mg/kg, po bid and measured on day 14 by caliper method; type: functional, organism-based
KARPAS-422 [15] = experiment: Antitumor activity against human KARPAS422 cells xenografted in CB-17 SCID mouse assessed as tumor growth inhibition at 25 mg/kg, po bid and measured on day 21 by caliper method relative to control; type: functional; conditions: KARPAS-422, po, 504 h, read-out: TGI
[16] = Toxicity in CB-17 SCID mouse xenografted with human KARPAS422 cells assessed as effect on body weight at 25 mg/kg, po bid and measured on day 21; type: organism-based, KARPAS-422; conditions: in vivo
[17] = target: T1, Histone-lysine N-methyltransferase EZH2; experiment: In vivo inhibition of EZH2 in CB-17 SCID mouse xenografted with human KARPAS422 cells assessed as reduction in trimethylation of H3K27 in tumor at 25 mg/kg, po bid for 21 days measured after 14 days by MSD-ELISA; type: functional, organism-based; conditions: KARPAS-422
Target sequence in this assay (Q15910 whole entry, looked up): as the sequence (Q15910 whole entry) above

[18] = Oral bioavailability in CB-17 SCID mouse xenografted with human KARPAS422 cells at 25 mg/kg, bid for 21 days measured up to 10 hrs post first dose at day 1 by LC-MS analysis; type: ADME, organism-based, KARPAS-422; conditions: in vivo
[19] = Dose normalized AUClast in CB-17 SCID mouse xenografted with human KARPAS422 cells at 25 mg/kg, po bid for 21 days and measured after 10 hrs post first dose at day 1 by LC-MS analysis; type: ADME, organism-based, KARPAS-422; conditions: in vivo
[20] = Time during which free drug concentration exceeds EC50 for inhibition of EZH2 in human HeLa cells in CB-17 SCID mouse xenografted with human KARPAS422 cells at 25 mg/kg, po bid for 21 days and measured up to 10 hrs post first dose at day 1 by LC-MS analysis; type: organism-based; conditions: in vivo
KARPAS-422 [21] = experiment: Antitumor activity against human KARPAS422 cells xenografted in CB-17 SCID mouse assessed as tumor growth inhibition at 25 mg/kg, po bid and measured on day 25 by caliper method relative to control; type: functional; conditions: KARPAS-422, po, 600 h, read-out: TGI

Row | SMILES | IC50 [1] [nM] | EC50 [2] [nM] | GI50 (KARPAS-422 [3]) [nM] | fold induction at 72 h, 10 µM (CYP3A4) | TIME [4] [h] | also measured
1 | CSc1cc(C)[nH]c(=O)c1CNC(=O)c1c(C)n([C@H](C)[C@H]2CC[C@H](N3CC(OC4CC4)C3)CC2)c2ccccc12 | 0.072 | 3.5 | 13 | 17 | 289 | –
2 | CSc1cc(C)[nH]c(=O)c1CNC(=O)c1c(C)n([C@H](C)[C@H]2OC[C@H](N(C)C)CO2)c2ccccc12 | 0.16 | 2.4 | – | 3 | 40.9 | –
3 | Cc1cc(SCc2ccccc2)c(CNC(=O)c2c(C)n([C@H](C)C3CCN(CC(F)(F)F)CC3)c3ccccc23)c(=O)[nH]1 | 3.8 | – | – | – | – | –
4 | Cc1cc(Sc2ccccc2)c(CNC(=O)c2c(C)n([C@H](C)C3CCN(CC(F)(F)F)CC3)c3ccccc23)c(=O)[nH]1 | 0.62 | 181 | – | – | – | –
5 | Cc1cc(SC2CCC2)c(CNC(=O)c2c(C)n([C@H](C)C3CCN(CC(F)(F)F)CC3)c3ccccc23)c(=O)[nH]1 | 0.49 | 48.5 | – | – | – | –
6 | Cc1cc(Cl)c(CNC(=O)c2c(C)n([C@H](C)C3CCN(CC(F)(F)F)CC3)c3ccccc23)c(=O)[nH]1 | 0.2 to 30 | < 100 | – | – | – | –
7 | CSc1cc(C)[nH]c(=O)c1CNC(=O)c1c(C)n([C@H](C)C2CCN(CC(C)(C)O)CC2)c2ccccc12 | 0.067 | 26 | – | – | 7.52 | –
8 | CSc1cc(C)[nH]c(=O)c1CNC(=O)c1c(C)n([C@H](C)C2CCN(CC(F)(F)F)CC2)c2ccccc12 | 0.18 | 2.5 | 53 | 25 | 46.3 | Activity [5]: Non-Toxic; clearance [6]: 9.33 mL/min/kg; bioavailability [7]: 40%; fraction unbound [8]: 0.002; fraction unbound [9]: 0.03; inhibition in vivo at 50 mg/kg (KARPAS-422 [10]): 77 to 88%; Activity (KARPAS-422 [11]): Active
9 | COc1cc(C)[nH]c(=O)c1CNC(=O)c1c(C)n([C@H](C)C2CCN(CC(F)(F)F)CC2)c2ccccc12 [CPI-1205] | – | – | 436 | – | 4.5 | –
10 | CSc1cc(C)[nH]c(=O)c1CNC(=O)c1c(C)n([C@H](C)C2CCN(C3COC3)CC2)c2ccccc12 | 0.12 | 5.1 | – | 6.4 | 42.5 | –
11 | CSc1cc(C)[nH]c(=O)c1CNC(=O)c1c(C)n([C@H](C)[C@H]2CC[C@H](NC3COC3)CC2)c2ccccc12 | 0.13 | 6.7 | – | 5 | 138 | –
12 | Cc1cc(C)c(CNC(=O)c2c(C)n([C@H](C)C3CCN(CC(F)(F)F)CC3)c3ccccc23)c(=O)[nH]1 | 0.2 to 30 | – | – | – | – | –
13 | CSc1cc(C)[nH]c(=O)c1CNC(=O)c1c(C)n([C@H](C)[C@H]2CC[C@H](N3CC(OC(F)(F)F)C3)CC2)c2ccccc12 | 0.14 | 1.8 | 32 | 41 | – | –
14 | Cc1cc(S(C)(=O)=O)c(CNC(=O)c2c(C)n([C@H](C)C3CCN(CC(F)(F)F)CC3)c3ccccc23)c(=O)[nH]1 | 4.1 | > 304 | – | – | – | –
15 | CSc1cc(C)[nH]c(=O)c1CNC(=O)c1c(C)n([C@H](C)[C@H]2CC[C@@H](N3CC(F)(F)C3)CC2)c2ccccc12 | 0.18 | 5.9 | – | 45 | 29.1 | –
16 | CSc1cc(C)[nH]c(=O)c1CNC(=O)c1c(C)n([C@H](C)[C@H]2CC[C@H](N3CC(OC4CC4)C3)CC2)c2c(F)cccc12 | 0.063 | 3.4 | 32 | – | 100 | –
17 | Cc1cc(Cl)[nH]c(=O)c1CNC(=O)c1c(C)n([C@H](C)C2CCN(CC(F)(F)F)CC2)c2ccccc12 | 0.2 to 30 | > 1000 | – | – | – | –
18 | CSc1cc(C)[nH]c(=O)c1CNC(=O)c1c(C)n([C@H](C)[C@H]2CC[C@H](N3CC(OC4CC4)C3)CC2)c2ncncc12 | 0.1 | 6.3 | 29 | – | 51.9 | –
19 | CCSc1cc(C)[nH]c(=O)c1CNC(=O)c1c(C)n([C@H](C)C2CCN(CC(F)(F)F)CC2)c2ccccc12 | 0.73 | 45.3 | – | – | – | –
20 | COc1cc(C)c(CNC(=O)c2c(C)n([C@H](C)C3CCN(CC(F)(F)F)CC3)c3ccccc23)c(=O)[nH]1 | 0.2 to 30 | > 1000 | – | – | – | –
21 | CCN(c1cc(-c2ccc(CN3CCOCC3)cc2)cc(C(=O)NCc2c(C)cc(C)[nH]c2=O)c1C)C1CCOCC1 | – | – | – | – | – | Activity (KARPAS-422 [12]): Active
22 | CSc1cc(C)[nH]c(=O)c1CNC(=O)c1c(C)n([C@H](C)[C@H]2CC[C@H](N3CC(OC4CC4)C3)CC2)c2ncc(Cl)cc12 | 0.092 | 3.5 | 37 | 1.6 | 64.2 | –
23 | COC1CN([C@H]2CC[C@H]([C@@H](C)n3c(C)c(C(=O)NCc4c(SC)cc(C)[nH]c4=O)c4ccccc43)CC2)C1 | 0.059 | 2 | 33 | 2 | 141 | Activity [5]: Non-Toxic; inhibition in vivo at 50 mg/kg (CWR22R): 55%; Activity (KARPAS-422 [13]): Active
24 | CSc1cc(C)[nH]c(=O)c1CNC(=O)c1c(C)n([C@H](C)[C@H]2CC[C@H](N3CC(OC4CC4)C3)CC2)c2ncc(F)cc12 | 0.06 | 1.8 | 24 | 12 | 65.8 | –
25 | CSc1cc(C)[nH]c(=O)c1CNC(=O)c1c(C)n([C@H](C)[C@H]2CC[C@H](N3CC(OC4CC4)C3)CC2)c2ncccc12 | 0.057 | 1.8 | 12 to 12.2 | 2.2 | 57.5 | Activity (KARPAS-422 [14]): Active; inhibition in vivo at 25 mg/kg (KARPAS-422 [15]): 75%; Activity [16]: Non-Toxic; inhibition [17]: Active; clearance [6]: 55.8 mL/min/kg; bioavailability [18]: 15%; AUClast/dose [19]: 46.5 ng·h/mL/(mg/kg); fraction unbound [8]: 0.13; fraction unbound [9]: 0.03; T>fEC50 [20]: 4 h; inhibition in vivo at 25 mg/kg (KARPAS-422 [21]): ≥ 91%
26 | CSc1cc(C)[nH]c(=O)c1CNC(=O)c1c(C)n([C@H](C)[C@H]2CC[C@H](N3CC(OC(F)F)C3)CC2)c2ccccc12 | 0.1 | 0.7 | 12 | 32 | 211 | –
27 | Cc1cc([S+](C)[O-])c(CNC(=O)c2c(C)n([C@H](C)C3CCN(CC(F)(F)F)CC3)c3ccccc23)c(=O)[nH]1 (stereo partly drawn) | 19 | > 304 | – | – | – | –
